From patent publication US12473305B2, “Pyrazole boronic acid compound, pharmaceutical composition containing same, and uses thereof” (BEIJING SONGRUN PHARMACEUTICAL TECHNOLOGY CO., LTD., priority 2020, dated 2025)

Legend:
[1] = tested on: non-small cell lung cancer cell line A549; test: CellTiter-Glo tumor cell proliferation, A549; assay type: cell-based, human; conditions: Homo sapiens, A549; CellTiter-Glo, 72 h
How it was run: (§1)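 Cells seeded at 2×10^4/mL, grown 24 h at 37° C, 5% CO2, then treated in triplicate with medium-diluted compound for 72 h. CellTiter-Glo luminescence read after 20 min at 37° C; inhibition versus untreated control RLU, IC50 calculated.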

[2] = tested on: human liver cancer Bel7404; test: Antitumor activity in vivo, Bel7404 transplanted in nude mice; design: species or system male BALB/c athymic nude mice; conditions: for RTV (d22): iv × 5; for Animal weight (g) (After tumor removal) / Inhibition rate %: iv × 5, d22
Experimental: In the test, the Bel7404 models of human liver cancer transplanted into 6-week-old male BALB/c athymic nude mice (purchased from Shanghai Slac Laboratory Animal Co., Ltd.) with body weight of 18-20 g were used to study the anti-tumor effect of compound 30. The dose of compound 30 was 50 mg/kg (30H group), 25 mg/kg (30 M group) and 12.5 mg/kg (30 L group), respectively, and was injected intravenously twice a week for 5 times in total; at the same time, 5-FU was used as the control drug, which was injected intraperitoneally twice a week for 7 times in total (5 mice/group for the compound 30 administration group, 5 mice in 5 FU administration group; 8 mice were used as the mock group). The long diameter a (mm) and the vertical short diameter b (mm) of the tumor were measured twice a week with a digital electronic caliper. The tumor volume calculation formula was TV=ab^2/2; and the relative tumor volume calculation formula was RTV=Vt/Vo, wherein Vo was the tumor volume measured on the first day of administration (d1), and Vt was the tumor volume at each measurement. On the 22nd day of administration (d22), the animals were sacrificed and weighed. The tumor mass was dissected and weighed. The tumor inhibition rate (tumor inhibitory rate, %) was calculated according to the following formula: […]

[3] = biological target: T1, 20S proteasome β5 subunit (Homo sapiens, UniProt P20618+P28074); test: Proteasome-Glo Cell-Based assay in K562 cells, β5 subunit; conditions: 2 h incubation
T1 construct: endogenous in cells; host or cells: K562
Experimental: (§2) Proteasome-Glo™ Cell-Based assay kit (Promega, USA) was used to determine the activity of the target compound against the 20S proteasome. Human chronic myeloid leukemia cell line (K562, 6000 cells/well) was inoculated into the 384 well plate in 20 μL/well. The cells were then equilibrated at 37° C., 5% CO2 for 2 hours. Each 384 well plate was set with the mock group and treatment group, and each well of the treatment group was added with 5 μL of the compound solution with the final concentration of 40 μM, 13.3 μM, 4.44 μM, 1.48 μM, 0.49 μM, 0.16 μM, 0.055 μM, 0.0183 μM, […], 0.0061 μM. The cells was incubated with the drugs for 2 hours at 37° C., 5% CO2 before adding 25 μL of corresponding Proteasome-Glo™ Cell-Based reagent per well. The relative luminescence unit (RLU) was measured by using Multimode Microplate Reader Varioskan Flash (Thermo Scientific, USA) after 15 min and compared with the RLU of the control group. SigmaPlot 10.0 software was used to calculate IC50 value.

[4] = tested on: Human melanoma cell line A375; test: CellTiter-Glo tumor cell proliferation, A375; assay type: cell-based; conditions: Homo sapiens, A-375; CellTiter-Glo, 72 h
How it was run: as §1

[5] = tested on: human multiple myeloma RPMI 8226; test: Pharmacodynamic study, RPMI 8226 subcutaneous xenograft; assay type: in vivo, female NOD/SCID mice; conditions: BIW, tail vein, day of the last administration; for Tumor volume (x ± S): in mm³ (unit assumed)
Experimental: The anti-tumor effect in vivo was studied by using the tumor animal model obtained by subcutaneous xenotransplantation of cell lines into female NOD/SCID mice (purchased from Sipeifu Biotechnology Co., Ltd.).
RPMI 8226 cells were subcutaneously inoculated into NOD/SCID mice, and human multiple myeloma subcutaneously transplanted tumor model was successfully established 9 days after inoculating the cells. The test was divided into vehicle (0.3 mL DMSO, 0.27 mL Tween-80, 2.43 mL normal saline) control group, compound 30 low-dose group (20 mg/kg), compound 30 medium-dose group (30 mg/kg), compound 30 high-dose group (40 mg/kg), compound 39 low-dose group (5 mg/kg), compound 39 medium-dose group (10 mg/kg), and compound 39 high-dose group (15 mg/kg), and bortezomib (API purchased from Yangtze River Pharmaceutical) was used as the positive control group (0.5 mg/kg); 5 tumor-bearing mice established above in each group were administered by tail vein twice a week for nine times in total. The long diameter a (mm) of the tumor and the short diameter b (mm) of the tumor perpendicular to the long diameter were measured with digital electronic caliper twice a week. The calculation formula of tumor volume was: TV=ab^2/2; and the calculation formula of relative tumor volume was: RTV=Vt/Vo, Vo was the tumor volume measured when the mice in each group were divided into cages and administered for the first time (d1), and Vt was the tumor volume measured at the last administration. The animals were sacrificed 31 days (d22) after inoculation of RPMI 8226 cells, and weighed. The tumor mass was dissected and weighed, and the tumor inhibition rate was calculated according to the following formula: […]

[6] = tested on: colorectal cancer cell line HCT116; test: CellTiter-Glo tumor cell proliferation, HCT116; assay type: cell-based, human; conditions: Homo sapiens, HCT-116; CellTiter-Glo, 72 h
How it was run: as §1

[7] = biological target: T2, 20S proteasome β1 subunit (Homo sapiens, UniProt P28072+Q99436); test: Proteasome-Glo Cell-Based assay in K562 cells, β1 subunit; conditions: 2 h incubation
T2 construct: endogenous in cells; host or cells: K562
Experimental: as §2

SMILES: CC(C)C[C@H](NC(=O)Cn1nc(-c2cccc(OCCN3CCOCC3)c2)cc1-c1ccccc1)B(O)O.Cl [Compound 30, (R)-(3-methyl-1-(2-(3-(3-(2-morpholinoethoxy)phenyl)-5-phenyl-1H-pyrazol-1-yl)-acetamido)butyl)boronic acid hydrochloride]
- IC50 [1]: 3050 nM
- RTV (d22) ([2]; 12.5 mg/kg): 4.52 ± 1.08
- Animal weight (g) (After tumor removal) ([2]; 12.5 mg/kg): 23.11 ± 0.65 g
- Inhibition rate % ([2]; 12.5 mg/kg): 24.89%
- RTV (d22) ([2]; 25 mg/kg): 3.82 ± 0.67
- Animal weight (g) (After tumor removal) ([2]; 25 mg/kg): 21.91 ± 0.56 g
- Inhibition rate % ([2]; 25 mg/kg): 36.55%
- RTV (d22) ([2]; 50 mg/kg): 2.33 ± 0.59
- Animal weight (g) (After tumor removal) ([2]; 50 mg/kg): 19.95 ± 0.45 g
- Inhibition rate % ([2]; 50 mg/kg): 61.29%
- IC50 [3]: 400 nM
- IC50 [4]: 822 nM
- Relative tumor volume (x ± S) ([5]; 20 mg/kg): 2.57 ± 0.61
- T/C (%) ([5]; 20 mg/kg): 27.55%
- TGI (%) ([5]; 20 mg/kg): 72.45%
- Tumor volume (x ± S) ([5]; 20 mg/kg): 267.27 ± 77.46
- Relative tumor volume (x ± S) ([5]; 30 mg/kg): 1.63 ± 0.32
- T/C (%) ([5]; 30 mg/kg): 17.47%
- TGI (%) ([5]; 30 mg/kg): 82.53%
- Tumor volume (x ± S) ([5]; 30 mg/kg): 147.56 ± 33.02
- Relative tumor volume (x ± S) ([5]; 40 mg/kg): 0.74 ± 0.12
- T/C (%) ([5]; 40 mg/kg): 7.93%
- TGI (%) ([5]; 40 mg/kg): 92.07%
- Tumor volume (x ± S) ([5]; 40 mg/kg): 72.06 ± 13.62
- IC50 [6]: 630 nM
- IC50 [7]: 2040 nM

SMILES: CC(C)C[C@H](NC(=O)Cn1nc(-c2cccc(OCCN3CCN(c4ccccc4)CC3)c2)cc1-c1ccccc1)B(O)O.Cl [Compound 39, (R)-(3-methyl-1-(2-(5-phenyl-3-(3-(2-(4-phenylpiperazin-1-yl)ethoxy)phenyl)-1H-pyrazol-1-yl)acetamido)butyl)boronic acid hydrochloride]
- IC50 [3]: 200 nM
- Relative tumor volume (x ± S) ([5]; 5 mg/kg): 1.51 ± 0.38
- T/C (%) ([5]; 5 mg/kg): 16.18%
- TGI (%) ([5]; 5 mg/kg): 83.82%
- Tumor volume (x ± S) ([5]; 5 mg/kg): 177.55 ± 51.28
- Relative tumor volume (x ± S) ([5]; 10 mg/kg): 0.62 ± 0.28
- T/C (%) ([5]; 10 mg/kg): 6.65%
- TGI (%) ([5]; 10 mg/kg): 93.35%
- Tumor volume (x ± S) ([5]; 10 mg/kg): 75.06 ± 19.64
- Relative tumor volume (x ± S) ([5]; 15 mg/kg): 0.36 ± 0.02
- T/C (%) ([5]; 15 mg/kg): 3.86%
- TGI (%) ([5]; 15 mg/kg): 96.14%
- Tumor volume (x ± S) ([5]; 15 mg/kg): 21.79 ± 3.50
- IC50 [6]: 84 nM
